Where “and” joins values, the source holds several entries; their conditions need not be identical. Equal entries are not always repeated. Where two headings read alike, the source gives them in different places.
Columns and labels:
[1] = Safety evaluations (adverse events, laboratory tests) in the crossover study; assay type: in vivo, human; details: for Subjects who experienced at least one AE: by treatment period; for Drug-related adverse events: ALT increased / Drug-related adverse events: Any event / Drug-related adverse events: Asthenia / Drug-related adverse events: Cognitive disorder / Drug-related adverse events: Drug reaction with eosinophilia and systemic symptoms / Drug-related adverse events: Fatigue / Drug-related adverse events: Headache / Drug-related adverse events: Hyponatremia / Drug-related adverse events: Leukopenia / Drug-related adverse events: Lymphopenia / Drug-related adverse events: Nausea / Drug-related adverse events: Pain in extremity / Drug-related adverse events: Photosensitivity reaction / Drug-related adverse events: Pyrexia / Drug-related adverse events: Rash maculopapular / Drug-related adverse events: Thirst / Drug-related adverse events: Thrombocytopenia: DTG alone n = 16, CBZ alone n = 16, DTG + CBZ n = 14
Method: Safety evaluations included the monitoring of adverse events (AEs), physical examinations, clinical chemistry laboratory tests, vital signs, and electrocardiograms. Additionally, assessment of Columbia suicide severity rating scale scores was performed throughout the study, because CBZ exposure (along with exposure to several other AEDs) has been associated with increased risk of suicidal ideation and depression.

[2] = set-up: method as in ref 11 = [11]; 11. Tegretol ® (carbamazepine) [package insert]. East Hanover: Novartis; 2014; details: cited from earlier work
CYP isozymes = tested on: CYP isozymes; set-up: method as in PMID 23132334; details: in vitro; cited from earlier work
MRP2 = tested on: MRP2; set-up: method as in PMID 23132334; details: in vitro; cited from earlier work
UGT1A1 = tested on: UGT1A1; set-up: method as in PMID 23132334; details: in vitro; cited from earlier work
[3] = set-up: method as in PMID 25146692, PMID 23075918; details: DTG co-administered with tipranavir/ritonavir, efavirenz, and rifampin; cited from earlier work
CYP3A4 [4] = tested on: CYP3A4; set-up: method as in PMID 23132334; details: in vitro; cited from earlier work
P-glycoprotein (P-gp) = tested on: P-glycoprotein (P-gp); set-up: method as in PMID 23132334; details: cited from earlier work
CYP3A4 [5] = tested on: CYP3A4; set-up: method as in ref 1 = [1]; 1. Tivicay ® (dolutegravir) [package insert]. Research Triangle Park: ViiV Healthcare; 2014; details: midazolam as probe substrate for CYP3A4, healthy subjects; cited from earlier work
CYP1A2 = tested on: CYP1A2; set-up: method as in PMID 23132334; details: in vitro; cited from earlier work
[6] = tested on: breast cancer resistance protein; set-up: method as in PMID 23132334; details: in vitro; cited from earlier work
[7] = Steady-state plasma DTG pharmacokinetics with and without CBZ (phase I open-label fixed-sequence crossover study); assay type: in vivo, human; details: for half-life: read-out: t1/2 (terminal elimination half-life) of DTG, geometric mean (CV%) (converted)
Method: This was a phase I, single-site, open-label, fixed-sequence, crossover study with three treatment periods to evaluate the effect of an oral extended-release formulation of CBZ on the steady-state PK of orally administered DTG in 16 healthy subjects. The study was conducted in accordance with the principles of the Declaration of Helsinki. A written informed consent was obtained from all subjects, and the protocol was approved by the institutional review board of the study site. The trial was registered at ClinicalTrials.gov (NCT01967771; protocol number: 200901). During period 1, subjects received DTG 50 mg once daily as a single agent for days 1 to 5. During period 2, subjects received CBZ alone and the dose was escalated: 100 mg twice daily for days 1 to 3, 200 mg twice daily for days 4 to 6, and 300 mg twice daily for days 7 to 16. During period 3, DTG 50 mg once daily was co-administered with CBZ 300 mg twice daily for days 1 to 5. There was no washout between treatment periods. As CBZ is recommended to be given with food per product information, all doses in the testing unit, including those on PK collection days, were administered orally in the morning 30 min after the start of the moderate-fat meal, and subjects were asked to do the same when dosing outside the unit. Subjects were housed at the clinical research unit from period 1, day 1, until the morning of period 2, day 8, as well as from period 2, day 16, through period 3, day 6. Phone call reminders and pill counts were employed when subjects self-administered CBZ as outpatients during period 2, days 8 to 16. […] Plasma samples were analyzed for DTG by PPD, Inc. (Middleton, WI) using a validated analytical method based on protein precipitation with acetonitrile containing the stable isotope-labeled internal standard (GSK1349572-d7-^15N), followed by high-performance liquid chromatography/tandem mass spectrometry analysis. The lower limit of quantification for DTG in plasma was 20 ng/mL, and the upper limit of quantification was 20,000 ng/mL. Precision and accuracy were evaluated by replicate analyses of human plasma quality control samples prepared at five concentrations: 60, 160, 640, 2400, and 15,200 ng/mL. Precision, measured as the percent coefficient of variation, ranged from 3.0 to 5.9 % across the quality control range. […] Both were within acceptance standards of 15 %. A non-compartmental PK analysis of the DTG concentration-time data was conducted by Phast Clinical Data, Inc. (Raleigh, NC). Pharmacokinetic analyses of plasma DTG concentration-time data were analyzed using Model 200 (for extravascular administration) of Phoenix WinNonlin version 6.3 (Pharsight Corporation, St. Louis, MO). Plasma PK parameters for DTG were calculated using actual elapsed times from dosing. The individual PK parameters that were determined included area under the curve from time zero to the end of the dosing interval (AUC(0-τ)), maximum observed plasma concentration (Cmax), plasma concentration at the end of the dosing interval (Cτ), oral clearance, and terminal half-life. This study was designed to estimate the magnitude of drug-interaction effect of CBZ on the PK parameters of DTG. No formal hypothesis was tested. Instead, an estimation approach was used to evaluate the effect of CBZ on DTG PK. Pharmacokinetic parameters were log-transformed and analyzed by analysis of variance to determine the point estimate and associated 90 % confidence intervals for the difference between test treatment (DTG + CBZ) and reference treatment (DTG alone). These values were then back-transformed to calculate the point and interval estimates for test-to-reference treatment ratios on the original scale. Geometric least-squares mean ratios and 90 % confidence intervals were generated by the mixed-effect model for within-subject treatment comparisons.

OATP1B1 = tested on: OATP1B1; set-up: method as in PMID 23132334; details: in vitro; cited from earlier work
[8] = tested on: cytochrome P450 (CYP) 3A4; set-up: method as in PMID 23132334; details: minor component; primarily metabolized by UGT1A1; cited from earlier work
OATP1B3 = tested on: OATP1B3; set-up: method as in PMID 23132334; details: in vitro; cited from earlier work
UGT2B7 = tested on: UGT2B7; set-up: method as in PMID 23132334; details: in vitro; cited from earlier work
P-gp = tested on: P-gp; set-up: method as in PMID 23132334; details: in vitro; cited from earlier work
CYP2B6 = tested on: CYP2B6; set-up: method as in PMID 23132334; details: in vitro; cited from earlier work
[9] = DTG 50 mg once daily alone, day 5 of period 1, n = 16
[10] = DTG co-administered with CBZ vs DTG alone
[11] = DTG co-administered with CBZ, 14 subjects with PK results in both periods

In the case of NC(=O)N1c2ccccc2C=Cc2ccccc21 [CBZ, Carbamazepine], the “Subjects who experienced at least one AE” value ([1]; healthy subjects) is reported as “six”, the “Drug-related adverse events: ALT increased” value ([1]; healthy subjects) is reported as 1 (6) n (%) and the “Drug-related adverse events: Any event” value ([1]; healthy subjects) is reported as 6 (38) n (%). For the same compound, the “Drug-related adverse events: Asthenia” value ([1]; healthy subjects) was 1 (6) n (%), the “Drug-related adverse events: Cognitive disorder” value ([1]; healthy subjects) was 1 (6) n (%) and the “Drug-related adverse events: Drug reaction with eosinophilia and systemic symptoms” value ([1]; healthy subjects) was 1 (6) n (%). The “Drug-related adverse events: Fatigue” value ([1]; healthy subjects) was 0 n (%), the “Drug-related adverse events: Headache” value ([1]; healthy subjects) was 2 (13) n (%) and the “Drug-related adverse events: Hyponatremia” value ([1]; healthy subjects) was 1 (6) n (%). For the same compound, the “Drug-related adverse events: Leukopenia” value ([1]; healthy subjects) was 1 (6) n (%), the “Drug-related adverse events: Lymphopenia” value ([1]; healthy subjects) was 1 (6) n (%) and the “Drug-related adverse events: Nausea” value ([1]; healthy subjects) was 1 (6) n (%). For the same compound, the “Drug-related adverse events: Pain in extremity” value ([1]; healthy subjects) was 1 (6) n (%), the “Drug-related adverse events: Photosensitivity reaction” value ([1]; healthy subjects) was 0 n (%) and the “Drug-related adverse events: Pyrexia” value ([1]; healthy subjects) was 1 (6) n (%). For the same compound, the “Drug-related adverse events: Rash maculopapular” value ([1]; healthy subjects) was 1 (6) n (%), the “Drug-related adverse events: Thirst” value ([1]; healthy subjects) was 1 (6) n (%) and the “Drug-related adverse events: Thrombocytopenia” value ([1]; healthy subjects) was 2 (13) n (%). For the same compound, the “White blood cell count (decrease)” value ([1]; one subject with suspected grade 2 hypersensitivity syndrome on 300 mg CBZ twice daily, period 2, baseline 8800 cells/mm^3) was 3800 cells/mm^3, the “Subjects permanently discontinued because of AEs” value ([1]; period 2 (CBZ alone)) was “Two” and the “Platelet count (low)” value ([1]; same subject on 300 mg CBZ twice daily, 159,000 3 days before) was 78,000 cells/mm^3. For the same compound, the “ALT level (high)” value ([1]; same subject on 300 mg CBZ twice daily, grade 2) was 151 IU/L, the half-life ([2]; following chronic dosing) was 12 to 17 h and the half-life ([2]; following single dosing) was 25 to 65 h.
In the case of C[C@@H]1CCO[C@H]2Cn3cc(C(=O)NCc4ccc(F)cc4F)c(=O)c(O)c3C(=O)N12 [DTG, Dolutegravir], the “Direct inhibition of CYP isozymes” value (CYP isozymes) is listed as “minimal or no direct inhibition”, the “Direct inhibition of MRP2” value (MRP2) is listed as “minimal or no direct inhibition” and the “Direct inhibition of UGT1A1” value (UGT1A1) is listed as “minimal or no direct inhibition”. The “Reduction of DTG AUC(0-τ)” value [3] was 36 to 49%, the “Reduction of DTG Cτ” value [3] was 72 to 76% and the “Induction of CYP3A4” value (CYP3A4 [4]) was “not an inducer”. The “Substrate of P-gp” value (P-glycoprotein (P-gp)) was “substrate of P-glycoprotein”, the “Effect on midazolam exposure” value (CYP3A4 [5]) was “no significant effect” and the “Induction of CYP1A2” value (CYP1A2) was “not an inducer”. The Tolerability ([1]; DTG alone and co-administered with CBZ, healthy subjects) was “well tolerated”, the “Subjects who experienced at least one AE” value ([1]; healthy subjects) was “No subjects experienced AEs” and the “Drug-related adverse events: ALT increased” value ([1]; healthy subjects) was 0 n (%). The “Drug-related adverse events: Any event” value ([1]; healthy subjects) was 0 n (%), the “Drug-related adverse events: Asthenia” value ([1]; healthy subjects) was 0 n (%) and the “Drug-related adverse events: Cognitive disorder” value ([1]; healthy subjects) was 0 n (%). The “Drug-related adverse events: Drug reaction with eosinophilia and systemic symptoms” value ([1]; healthy subjects) was 0 n (%), the “Drug-related adverse events: Fatigue” value ([1]; healthy subjects) was 0 n (%) and the “Drug-related adverse events: Headache” value ([1]; healthy subjects) was 0 n (%). The “Drug-related adverse events: Hyponatremia” value ([1]; healthy subjects) was 0 n (%), the “Drug-related adverse events: Leukopenia” value ([1]; healthy subjects) was 0 n (%) and the “Drug-related adverse events: Lymphopenia” value ([1]; healthy subjects) was 0 n (%). For the same compound, the “Drug-related adverse events: Nausea” value ([1]; healthy subjects) was 0 n (%), the “Drug-related adverse events: Pain in extremity” value ([1]; healthy subjects) was 0 n (%) and the “Drug-related adverse events: Photosensitivity reaction” value ([1]; healthy subjects) was 0 n (%). For the same compound, the “Drug-related adverse events: Pyrexia” value ([1]; healthy subjects) was 0 n (%), the “Drug-related adverse events: Rash maculopapular” value ([1]; healthy subjects) was 0 n (%) and the “Drug-related adverse events: Thirst” value ([1]; healthy subjects) was 0 n (%). The “Drug-related adverse events: Thrombocytopenia” value ([1]; healthy subjects) was 0 n (%), the “Direct inhibition of breast cancer resistance protein” value [6] was “minimal or no direct inhibition” and the “CL/F (oral clearance) of DTG, geometric mean (CV%)” value [7, 9] was 0.929 (21.4) L/h. For the same compound, the “Cτ of plasma DTG, geometric mean (CV%)” value [7, 9] was 1.20 (39.1) μg/mL, the “Increase of dolutegravir clearance” value [7, 10] was 95% and the “Reduction of geometric mean AUC(0-τ) of DTG” value [7, 10] was 49%. The “Reduction of geometric mean Cmax of DTG” value [7, 10] was 33%, the “Reduction of geometric mean Cτ of DTG” value [7, 10] was 73% and ~ 73% and the “Reduction in AUC(0-τ) on an individual subject basis” value [7, 11] was 27 to 58%. For the same compound, the “Reduction in Cτ on an individual subject basis” value [7, 11] was 53 to 82%, the half-life ([7]; human, plasma, oral, DTG 50 mg once daily + CBZ 300 mg twice daily, day 5 of period 3, n = 14) was 7.31 h and the Cmax ([7]; human, plasma, oral, DTG 50 mg once daily alone, day 5 of period 1, n = 16, read-out: Cmax of plasma DTG, geometric mean (CV%)) was 4160 ng/mL. The half-life ([7]; human, plasma, oral, DTG 50 mg once daily alone, day 5 of period 1, n = 16) was 12.9 h, the AUC ([7]; human, plasma, DTG 50 mg once daily alone, day 5 of period 1, oral with moderate-fat meal, healthy subjects, n = 16, read-out: AUC(0-τ) of plasma DTG, geometric mean (CV%)) was 53800 ng·h/mL and the “Direct inhibition of OATP1B1” value (OATP1B1) was “minimal or no direct inhibition”. The “Component of metabolism via CYP3A4” value [8] was “approximately 10%”, the “Direct inhibition of OATP1B3” value (OATP1B3) was “minimal or no direct inhibition” and the “Direct inhibition of UGT2B7” value (UGT2B7) was “minimal or no direct inhibition”. For the same compound, the “Direct inhibition of P-gp” value (P-gp) was “minimal or no direct inhibition” and the “Induction of CYP2B6” value (CYP2B6) was “not an inducer”.

From article PMC4865535, “Effect of carbamazepine on dolutegravir pharmacokinetics and dosing recommendation” (European Journal of Clinical Pharmacology, 2016)
